Patent publication US20250041439A1, “ANTIBODY-DRUG CONJUGATES” (SPIREA LIMITED, priority 2021, published 2025)
Where two headings read alike, the source gives them in different places. Non-standard residues stand in square brackets, D forms with d. Residues, ends and D or L forms follow the SMILES beside them. *: point of attachment. Dolaproine = CO[C@@H]([C@@H]1CCCN1)[C@@H](C)C(=O)O; Dil = CC[C@H](C)[C@H](NC)[C@@H](CC(=O)O)OC; X1 = C[C@@H](N*)[C@@H](O)c1ccccc1; NMeV = CN[C@H](C(=O)O)C(C)C

What was measured:
[1] = tested on: SK-BR-3 (Her2 High, human breast adenocarcinoma); test: CellTiter-Glo luminescence viability assay with MMAE ADC; format: cell-based; details: SK-BR-3 cells, 96 hours, n = 3; read-out: IC50 (anti-proliferative effect)
Method: (§1) The CellTiter-Glo© luminescence viability assay was used to measure the inhibitory effect of the MMAE ADC prepared in Example 3 on cell growth.
(§2) Her2^High SK-BR-3 (human breast adenocarcinoma, ATCC® HTB-30, Manassas, VA, United States) were cultured in McCoy's 5A medium supplemented with 200 U/mL penicillin, 200 μg/mL streptomycin and 20% heat-inactivated fetal bovine serum. Her2^Low JIMT-1 (human breast carcinoma, ACC589, DSMZ, Braunschweig, Germany) were cultured in DMEM GlutaMax® medium supplemented with 200 U/mL penicillin, 200 μg/mL streptomycin and 10% heat-inactivated fetal bovine serum. Her2^Negative NCI-H520 (human lung squamous cell carcinoma, ATCC®-HTB-182) were cultured in RPMI medium supplemented with 200 U/mL penicillin, 200 μg/mL streptomycin and 10% heat-inactivated fetal bovine serum.
(§3) SK-BR-3, JIMT-1 and NCI-H520 cells were seeded in 96-well plates at a density of 5×10^3, 2×10^3 and 2.5×10^3 cells in 100 μL growth medium, respectively, and incubated for 24 hours at 37° C./5% CO2.
(§4) After 96 hours in the presence of ADCs or controls, viability was detected using the CellTiter-Glo® luminescence assay. Assay plates were equilibrated at room temperature for 20 minutes before addition of 100 μL CellTiter-Glo® reagent per well. The plates were then mixed for 3 minutes at 300 rpm to assist cell lysis and incubated for a further 20 minutes at room temperature to stabilise the luminescence signal. Luminescence was recorded using a SpectraMax i3x plate reader with a default integration time of 0.5 s/well.

[2] = tested on: JIMT-1 (Her2 Low, human breast carcinoma); test: as above; format: cell-based; details: JIMT-1 cells, 96 hours, n = 3; read-out: IC50 (anti-proliferative effect)
Method: as §1, §2, §3, §4

[3] = tested on: NCI-H520 (Her2 Negative, human lung squamous cell carcinoma); test: as above; format: cell-based; details: NCI-H520 cells, 96 hours, n = 3; read-out: IC50 (anti-proliferative effect)
Method: as §1, §2, §3, §4

[4] = tested on: SK-BR-3 cells (HER2 High, human breast adenocarcinoma); test: CellTiter-Glo luminescence viability assay with SN-38 ADCs; format: cell-based; details: n = 3, read-out: SK-BR-3 IC50 Mean (±St. Dev.)
Method: The plates were then mixed for 3 minutes at 300 rpm to assist cell lysis and incubated for a further 20 minutes at room temperature to stabilise the luminescence signal.

[5] = tested on: NCI-N87 human gastric cancer CDX model; format: in vivo; details: 3 mg/kg IV single dose, PG-D42
Method: The objective of this study was to evaluate the in vivo anti-tumour efficacy of the MMAE ADC of Example 3 in the subcutaneous NCI-N87 human gastric cancer CDX model in female BALB/c Nude mice.
• Species: Mus musculus • Strain: BALB/c Nude • Age: 6-8 weeks • Sex: female • Body weight: 18-22 g
The NCI-N87 tumor cells (ATCC, Manassas, VA, cat #CRL-5822) were maintained in vitro as a monolayer culture in RPMI-1640 medium supplemented with 10% fetal bovine serum, 1% Antibiotic-Antimycotic, at 37° C. in an atmosphere of 5% CO2 in air. The tumour cells were routinely subcultured twice weekly by trypsin-EDTA treatment. The cells growing in an exponential growth phase were harvested and counted for tumour inoculation.
Each mouse for efficacy study was inoculated subcutaneously at the right flank with NCI-N87 tumour cells (10×10^6) in 0.2 mL of PBS supplemented with Matrigel (1:1) for tumour development. Treatments were started on day 6 after tumour inoculation when the average tumour size reached approximately 198 mm^3. […]
All the procedures related to animal handling, care and the treatment in the study were performed according to the guidelines approved by the Institutional Animal Care and Use Committee (IACUC) of the CRO following the guidance of the Association for Assessment and Accreditation of Laboratory Animal Care (AAALAC). At the time of routine monitoring, the animals were daily checked for any effects of tumour growth and treatments on normal behaviour such as mobility, food and water consumption (by looking only), body weight gain/loss (body weights were measured twice weekly), eye/hair matting and any other abnormal effect as stated in the protocol. Death and observed clinical signs were recorded on the basis of the numbers of animals within each subset.
The major endpoint was to see if the tumour growth could be delayed or mice could be cured. Tumour size was measured twice weekly in two dimensions using a calliper, and the volume was expressed in mm^3 using the formula: V=0.5a×b^2 where a and b are the long and short diameters of the tumour, respectively. […]

In the case of `CC[C@H](C)[C@@H]([C@@H](CC(=O)N1CCC[C@H]1[C@H](OC)[C@@H](C)C(=O)N[C@H](C)[C@@H](O)c1ccccc1)OC)N(C)C(=O)[C@@H](NC(=O)[C@@H](NC)C(C)C)C(C)C` [MMAE, monomethyl auristatin E] (H-[NMeV]V[Dil][Dolaproine]-X1), the IC50 [1] is reported as 0.284 ± 0.138 nM, the IC50 [2] is reported as 0.126 ± 0.053 nM and the IC50 [3] is reported as 0.334 ± 0.114 nM.
`CCc1c2c(nc3ccc(O)cc13)-c1cc3c(c(=O)n1C2)COC(=O)[C@]3(O)CC` [SN-38] showed an IC50 ([4]; 9 h exposure (limited), then further 96 hours) of 5.78 ± 2.01 nM and an IC50 ([4]; 96 h exposure (continuous)) of 1.17 ± 0.09 nM.
In the case of T-DM1, the T/C [5] is reported as 29.37%, the TGI [5] is reported as 78.58% and the mean tumour volume [5] is reported as 574 mm^3.
